In PMC10303200 (ACS Central Science, 2023):

Tests used:
Format in all cases: binding
[1] = biological target: MAA (Maackia amurensis agglutinin); experiment: COIN-CaR-nMS; details: native and all α2-3-linked N-glycan natural libraries and purified 3SL, 3SLN; pH 6.9
DC-SIGN CRD [2] = biological target: T1, DC-SIGN CRD (Homo sapiens, UniProt Q9NNX6); experiment: COIN-nMS (submicron emitters) with a mixture of ten glycans (G2, G5, G10, G14-G20), 200 mM ammonium acetate with 2.5 mM calcium salt, pH 7.4.; parameters: gene CD209; carbohydrate recognition domain, residues 250-404, MW 17 794 Da; details: SD, n = 6; read-out: Kd (COIN-nMS), Table S5
T1 sequence (Q9NNX6 250-404): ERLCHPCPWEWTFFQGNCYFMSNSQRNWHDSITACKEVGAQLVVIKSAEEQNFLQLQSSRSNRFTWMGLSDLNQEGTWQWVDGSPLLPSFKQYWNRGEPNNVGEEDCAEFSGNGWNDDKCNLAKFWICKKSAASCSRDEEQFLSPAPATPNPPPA

DC-SIGN CRD [3] = biological target: T1, DC-SIGN CRD; experiment: Direct native ESI-MS (submicron emitters) with a mixture of ten glycans (G2, G5, G10, G14-G20), 200 mM ammonium acetate with 2.5 mM calcium salt, pH 7.4.; parameters: gene CD209; carbohydrate recognition domain, residues 250-404, MW 17 794 Da; details: SD, n = 6; read-out: Kd (nMS), Table S5
DC-SIGN CRD [4] = biological target: T1, DC-SIGN CRD; experiment: COIN-nMS affinity measurement; parameters: The carbohydrate recognition domain (CRD) of DC-SIGN (residues 250–404, MW 17 794 Da); made in house; details: glycans present as a mixture (G2, G5, G10, G14-G20); average of six measurements; pH 7.4; read-out: Kd (COIN-nMS)
DC-SIGN CRD [5] = biological target: T1, DC-SIGN CRD; experiment: direct nMS affinity measurement; parameters: The carbohydrate recognition domain (CRD) of DC-SIGN (residues 250–404, MW 17 794 Da); made in house; details: glycans present as a mixture (G2, G5, G10, G14-G20); pH 7.4
GAL-7 [6] = biological target: T2, GAL-7 (Homo sapiens, UniProt P47929); experiment: COIN-nMS of the GAL-7 homodimer with a mixture of ten glycans (G2, G5-G13), 200 mM ammonium acetate, pH 6.9.; details: SD, n = 8; read-out: Kd (COIN-nMS), Table S4
T2 construct: gene LGALS7; homodimer (monomer MW 14.94 kDa)
T2 sequence (P47929 whole entry): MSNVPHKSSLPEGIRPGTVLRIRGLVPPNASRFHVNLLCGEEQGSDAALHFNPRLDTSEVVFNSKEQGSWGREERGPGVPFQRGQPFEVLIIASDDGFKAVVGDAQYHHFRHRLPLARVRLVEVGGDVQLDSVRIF

GAL-3C [7] = biological target: T3, GAL-3C (Homo sapiens, UniProt P17931); experiment: COIN-nMS with a mixture of ten glycans (G2, G5-G13), 200 mM ammonium acetate, pH 6.9.; parameters: gene LGALS3; C-terminal carbohydrate recognition domain fragment, residues 107-250; details: SD, n = 8; read-out: Kd (COIN-nMS), Table S3
T3 sequence (P17931 107-250): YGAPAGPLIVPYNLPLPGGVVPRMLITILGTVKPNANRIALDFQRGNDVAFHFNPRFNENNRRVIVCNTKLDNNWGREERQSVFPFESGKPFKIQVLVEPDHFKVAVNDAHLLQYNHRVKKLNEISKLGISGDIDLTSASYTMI

GAL-3C [8] = biological target: T3, GAL-3C; experiment: Direct native ESI-MS with a mixture of ten glycans (G2, G5-G13), 200 mM ammonium acetate, pH 6.9.; parameters: gene LGALS3; C-terminal carbohydrate recognition domain fragment, residues 107-250; details: SD, n = 8; read-out: Kd (nMS), Table S3
GAL-7 [9] = biological target: T2, GAL-7; experiment: Direct native ESI-MS of the GAL-7 homodimer with a mixture of ten glycans (G2, G5-G13), 200 mM ammonium acetate, pH 6.9.; details: SD, n = 8; read-out: Kd (nMS), Table S4

Compound | Kd [1] [nM] | Kd (DC-SIGN CRD [2]) [mM] | Kd (DC-SIGN CRD [3]) [mM] | further results
CC(=O)N[C@H]1[C@H](O[C@H]2[C@H](O)[C@@H](NC(C)=O)C(O)O[C@@H]2CO[C@@H]2O[C@@H](C)[C@@H](O)[C@@H](O)[C@@H]2O)O[C@H](CO)[C@@H](O[C@@H]2O[C@H](CO[C@H]3O[C@H](CO)[C@@H](O)[C@H](O)[C@@H]3O[C@@H]3O[C@H](CO)[C@@H](O[C@@H]4O[C@H](CO)[C@H](O)[C@H](O)[C@H]4O)[C@H](O)[C@H]3NC(C)=O)[C@@H](O)[C@H](O[C@H]3O[C@H](CO)[C@@H](O)[C@H](O)[C@@H]3O[C@@H]3O[C@H](CO)[C@@H](O[C@@H]4O[C@H](CO[C@]5(C(=O)O)C[C@H](O)[C@@H](NC(C)=O)[C@H]([C@H](O)[C@H](O)CO)O5)[C@H](O)[C@H](O)[C@H]4O)[C@H](O)[C@H]3NC(C)=O)[C@@H]2O)[C@@H]1O (stereo partly shown) [HexNAc4Hex5Fuc1NeuAc1] | 570 ± 160 |  |  | 
CC(=O)N[C@H]1[C@H](O[C@H]2[C@H](O)[C@@H](NC(C)=O)C(O)O[C@@H]2CO)O[C@H](CO)[C@@H](O[C@@H]2O[C@H](CO[C@H]3O[C@H](CO)[C@@H](O)[C@H](O)[C@@H]3O[C@@H]3O[C@H](CO)[C@@H](O[C@@H]4O[C@H](CO[C@]5(C(=O)O)C[C@H](O)[C@@H](NC(=O)CO)[C@H]([C@H](O)[C@H](O)CO)O5)[C@H](O)[C@H](O)[C@H]4O)[C@H](O)[C@H]3NC(C)=O)[C@@H](O)[C@H](O[C@H]3O[C@H](CO)[C@@H](O)[C@H](O)[C@@H]3O[C@@H]3O[C@H](CO)[C@@H](O[C@@H]4O[C@H](CO[C@]5(C(=O)O)C[C@H](O)[C@@H](NC(=O)CO)[C@H]([C@H](O)[C@H](O)CO)O5)[C@H](O)[C@H](O)[C@H]4O)[C@H](O)[C@H]3NC(C)=O)[C@@H]2O)[C@@H]1O (stereo partly shown) [HexNAc4Hex5NeuGc2] | 490 ± 200 |  |  | 
CC(=O)N[C@H]1[C@H](O[C@H]2[C@H](O)[C@@H](NC(C)=O)C(O)O[C@@H]2CO[C@@H]2O[C@@H](C)[C@@H](O)[C@@H](O)[C@@H]2O)O[C@H](CO)[C@@H](O[C@@H]2O[C@H](CO[C@H]3O[C@H](CO)[C@@H](O)[C@H](O)[C@@H]3O[C@@H]3O[C@H](CO)[C@@H](O[C@@H]4O[C@H](CO[C@]5(C(=O)O)C[C@H](O)[C@@H](NC(C)=O)[C@H]([C@H](O)[C@H](O)CO)O5)[C@H](O)[C@H](O)[C@H]4O)[C@H](O)[C@H]3NC(C)=O)[C@@H](O)[C@H](O[C@H]3O[C@H](CO)[C@@H](O)[C@H](O)[C@@H]3O[C@@H]3O[C@H](CO)[C@@H](O[C@@H]4O[C@H](CO[C@]5(C(=O)O)C[C@H](O)[C@@H](NC(C)=O)[C@H]([C@H](O)[C@H](O)CO)O5)[C@H](O)[C@H](O)[C@H]4O)[C@H](O)[C@H]3NC(C)=O)[C@@H]2O)[C@@H]1O (stereo partly shown) [HexNAc4Hex5Fuc1NeuAc2] | 390 ± 80 |  |  | 
OC[C@H]1O[C@H](O[C@H]2[C@H](O)[C@@H](O)[C@@H](O[C@H]3[C@H](O)[C@@H](O)[C@@H](O[C@H]4[C@H](O)[C@@H](O)[C@@H](O[C@H]5[C@H](O)[C@@H](O)C(O)O[C@@H]5CO)O[C@@H]4CO)O[C@@H]3CO)O[C@@H]2CO)[C@H](O)[C@@H](O)[C@@H]1O (stereo partly shown) [G20, maltopentaose] |  | 1.83 | 2.41 | 
OC[C@H]1O[C@H](OC[C@H]2O[C@H](OC[C@H]3OC(O)[C@@H](O)[C@@H](O[C@H]4O[C@H](CO)[C@@H](O)[C@H](O)[C@@H]4O[C@H]4O[C@H](CO)[C@@H](O)[C@H](O)[C@@H]4O)[C@@H]3O)[C@@H](O)[C@@H](O[C@H]3O[C@H](CO)[C@@H](O)[C@H](O)[C@@H]3O)[C@@H]2O)[C@@H](O)[C@@H](O)[C@@H]1O (stereo partly drawn) [G16, α-D-Man-(1→3)[α-D-Man(1→6)]-α-D-Man(1→6)[α-D-Man(1→2)-α-D-Man-(1→3)]-α-D-Man] |  | 0.56 | 0.81 | 
CC(=O)N[C@H]1[C@H](O[C@H]2[C@@H](O)[C@@H](CO)OC(O)[C@@H]2O)O[C@H](CO)[C@@H](O[C@@H]2O[C@@H](C)[C@@H](O)[C@@H](O)[C@@H]2O)[C@@H]1O[C@@H]1O[C@H](CO)[C@H](O)[C@H](O)[C@H]1O[C@@H]1O[C@@H](C)[C@@H](O)[C@@H](O)[C@@H]1O (stereo partly shown) [G17, blood group antigen G17] |  | 0.55 | 0.62 | 
α-D-Man-(1→2)-α-D-Man-(1→3)-[α-D-Man-(1→6)-[α-D-Man-(1→2)-α-D-Man-(1→3)]-α-D-Man [Glycan G15] |  |  |  | Kd (DC-SIGN CRD [4]): 410 ± 40 µM; Kd (DC-SIGN CRD [5]): 390 ± 50 µM
CC(=O)N[C@H]1[C@H](O[C@H]2[C@@H](O)[C@@H](CO)O[C@@H](O[C@H]3[C@H](O)[C@@H](O)C(O)O[C@@H]3CO)[C@@H]2O)O[C@H](CO)[C@@H](O[C@@H]2O[C@H](CO)[C@H](O)[C@H](O[C@H]3O[C@H](CO)[C@H](O)[C@H](O)[C@H]3O)[C@H]2O[C@@H]2O[C@@H](C)[C@@H](O)[C@@H](O)[C@@H]2O)[C@@H]1O (stereo partly shown) [G18, blood group antigen G18] |  | 1.87 | 3.33 | 
OC[C@H]1O[C@H](OC[C@H]2O[C@H](OC[C@H]3OC(O)[C@@H](O)[C@@H](O)[C@@H]3O)[C@@H](O)[C@@H](O[C@H]3O[C@H](CO)[C@@H](O)[C@H](O)[C@@H]3O)[C@@H]2O)[C@@H](O)[C@@H](O)[C@@H]1O (stereo partly shown) [G19, oligomannose glycan G19] |  | 1.5 | 1.18 | 
OC[C@H]1O[C@H](O[C@@H]2[C@H](O)[C@@H](OC[C@H]3OC(O)[C@@H](O)[C@@H](O[C@H]4O[C@H](CO)[C@@H](O)[C@H](O)[C@@H]4O[C@H]4O[C@H](CO)[C@@H](O)[C@H](O)[C@@H]4O[C@H]4O[C@H](CO)[C@@H](O)[C@H](O)[C@@H]4O)[C@@H]3O)O[C@H](CO[C@H]3O[C@H](CO)[C@@H](O)[C@H](O)[C@@H]3O[C@H]3O[C@H](CO)[C@@H](O)[C@H](O)[C@@H]3O)[C@H]2O)[C@@H](O)[C@@H](O)[C@@H]1O (stereo partly drawn) [G14, α-D-Man-(1→2)-α-D-Man-(1→6)-[α-D-Man-(1→3)]-α-D-Man-(1→6)-[α-D-Man-(1→2)-α-D-Man-(1→2)-α-D-Man-(1→3)]-α-D-Man] |  | 0.26 | 0.27 | 
CC(=O)N[C@H]1[C@H](O[C@H]2[C@@H](O)[C@@H](CO)O[C@@H](O[C@H]3[C@H](O)[C@@H](NC(C)=O)[C@H](O[C@H]4[C@@H](O)[C@@H](CO)O[C@@H](O[C@H]5[C@H](O)[C@@H](O)C(O)O[C@@H]5CO)[C@@H]4O)O[C@@H]3CO)[C@@H]2O)O[C@H](CO)[C@@H](O[C@@H]2O[C@H](CO)[C@H](O)[C@H](O)[C@H]2O)[C@@H]1O (stereo partly drawn) [G7, β-D-Gal-(1→4)-β-D-GlcNAc(1→3)-β-D-Gal(1→4)-β-D-GlcNAc(1→3)-β-D-Gal(1→4)-β-D-Glc] |  |  |  | Kd (GAL-7 [6]): 362 µM; Kd (GAL-3C [7]): 2.9 µM; Kd (GAL-3C [8]): 5 µM; Kd (GAL-7 [9]): 348 µM
CC(=O)N[C@H]1[C@H](O[C@H]2[C@H](O)[C@@H](NC(C)=O)C(O)O[C@@H]2CO)O[C@H](CO)[C@@H](O[C@@H]2O[C@H](CO[C@H]3O[C@H](CO)[C@@H](O)[C@H](O)[C@@H]3O[C@@H]3O[C@H](CO)[C@@H](O[C@@H]4O[C@H](CO[C@]5(C(=O)O)C[C@H](O)[C@@H](NC(C)=O)[C@H]([C@H](O)[C@H](O)CO)O5)[C@H](O)[C@H](O)[C@H]4O)[C@H](O)[C@H]3NC(C)=O)[C@@H](O)[C@H](O[C@H]3O[C@H](CO)[C@@H](O)[C@H](O)[C@@H]3O[C@@H]3O[C@H](CO)[C@@H](O[C@@H]4O[C@H](CO[C@]5(C(=O)O)C[C@H](O)[C@@H](NC(C)=O)[C@H]([C@H](O)[C@H](O)CO)O5)[C@H](O)[C@H](O)[C@H]4O)[C@H](O)[C@H]3NC(C)=O)[C@@H]2O)[C@@H]1O (stereo partly shown) [HexNAc4Hex5NeuAc2] | 520 ± 200 |  |  | 
CC(=O)N[C@H]1[C@@H](O[C@H]2[C@@H](O)[C@@H](CO)O[C@@H](O[C@H]3[C@H](O)[C@@H](NC(C)=O)C(O)O[C@@H]3CO)[C@@H]2O[C@@H]2O[C@@H](C)[C@@H](O)[C@@H](O)[C@@H]2O)O[C@H](CO)[C@H](O)[C@@H]1O (stereo partly drawn) [G10, α-D-GalNAc(1→3)-[α-L-Fuc(1→2)]-β-D-Gal(1→4)-D-GlcNAc] |  | 2.92 | 6.01 | Kd (GAL-7 [6]): 437 µM; Kd (GAL-3C [7]): 10.9 µM; Kd (GAL-3C [8]): 17.9 µM; Kd (GAL-7 [9]): 731 µM
